Measurements from ChEMBL document CHEMBL5465560, “Selectivity Literature for EUbOPEN Chemogenomic Library” (2024).

Assays:
[1] = molecular target: T1, Serine/threonine-protein kinase Nek9 (Homo sapiens) (UniProt Q8TD19); conditions: at 10 µM
T1 sequence (whole entry): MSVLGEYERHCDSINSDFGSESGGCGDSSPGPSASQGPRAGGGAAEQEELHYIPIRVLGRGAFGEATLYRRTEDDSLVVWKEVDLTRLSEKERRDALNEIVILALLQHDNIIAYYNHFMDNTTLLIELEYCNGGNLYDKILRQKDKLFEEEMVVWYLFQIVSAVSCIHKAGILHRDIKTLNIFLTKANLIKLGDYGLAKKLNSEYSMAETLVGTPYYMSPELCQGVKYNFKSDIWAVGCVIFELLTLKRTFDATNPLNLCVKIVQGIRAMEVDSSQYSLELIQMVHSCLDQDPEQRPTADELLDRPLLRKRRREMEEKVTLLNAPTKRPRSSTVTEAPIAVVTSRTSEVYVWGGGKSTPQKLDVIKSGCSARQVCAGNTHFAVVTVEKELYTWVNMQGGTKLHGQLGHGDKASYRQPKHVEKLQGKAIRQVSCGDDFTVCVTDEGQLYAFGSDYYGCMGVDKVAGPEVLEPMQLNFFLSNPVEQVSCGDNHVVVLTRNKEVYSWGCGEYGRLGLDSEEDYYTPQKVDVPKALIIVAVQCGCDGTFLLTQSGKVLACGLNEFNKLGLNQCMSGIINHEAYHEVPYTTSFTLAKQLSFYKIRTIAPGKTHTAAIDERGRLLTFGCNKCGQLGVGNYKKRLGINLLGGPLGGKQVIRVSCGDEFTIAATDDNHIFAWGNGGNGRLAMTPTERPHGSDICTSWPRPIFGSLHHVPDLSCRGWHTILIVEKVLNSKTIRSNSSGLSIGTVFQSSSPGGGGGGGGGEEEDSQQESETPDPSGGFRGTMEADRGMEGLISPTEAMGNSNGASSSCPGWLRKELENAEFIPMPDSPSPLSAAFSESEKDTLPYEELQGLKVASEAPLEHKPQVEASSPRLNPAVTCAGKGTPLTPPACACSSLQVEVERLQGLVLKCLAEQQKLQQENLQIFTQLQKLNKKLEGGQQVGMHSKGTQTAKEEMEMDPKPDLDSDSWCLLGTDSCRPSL

[2] = molecular target: Vascular endothelial growth factor receptor 3 (Homo sapiens, UniProt P35916); assay: Selectivity interaction (KinomeScan (DiscoverX)) EUB0001049a FLT4; conditions: at 1 µM
Chain of Vascular endothelial growth factor receptor 3 (P35916 whole entry): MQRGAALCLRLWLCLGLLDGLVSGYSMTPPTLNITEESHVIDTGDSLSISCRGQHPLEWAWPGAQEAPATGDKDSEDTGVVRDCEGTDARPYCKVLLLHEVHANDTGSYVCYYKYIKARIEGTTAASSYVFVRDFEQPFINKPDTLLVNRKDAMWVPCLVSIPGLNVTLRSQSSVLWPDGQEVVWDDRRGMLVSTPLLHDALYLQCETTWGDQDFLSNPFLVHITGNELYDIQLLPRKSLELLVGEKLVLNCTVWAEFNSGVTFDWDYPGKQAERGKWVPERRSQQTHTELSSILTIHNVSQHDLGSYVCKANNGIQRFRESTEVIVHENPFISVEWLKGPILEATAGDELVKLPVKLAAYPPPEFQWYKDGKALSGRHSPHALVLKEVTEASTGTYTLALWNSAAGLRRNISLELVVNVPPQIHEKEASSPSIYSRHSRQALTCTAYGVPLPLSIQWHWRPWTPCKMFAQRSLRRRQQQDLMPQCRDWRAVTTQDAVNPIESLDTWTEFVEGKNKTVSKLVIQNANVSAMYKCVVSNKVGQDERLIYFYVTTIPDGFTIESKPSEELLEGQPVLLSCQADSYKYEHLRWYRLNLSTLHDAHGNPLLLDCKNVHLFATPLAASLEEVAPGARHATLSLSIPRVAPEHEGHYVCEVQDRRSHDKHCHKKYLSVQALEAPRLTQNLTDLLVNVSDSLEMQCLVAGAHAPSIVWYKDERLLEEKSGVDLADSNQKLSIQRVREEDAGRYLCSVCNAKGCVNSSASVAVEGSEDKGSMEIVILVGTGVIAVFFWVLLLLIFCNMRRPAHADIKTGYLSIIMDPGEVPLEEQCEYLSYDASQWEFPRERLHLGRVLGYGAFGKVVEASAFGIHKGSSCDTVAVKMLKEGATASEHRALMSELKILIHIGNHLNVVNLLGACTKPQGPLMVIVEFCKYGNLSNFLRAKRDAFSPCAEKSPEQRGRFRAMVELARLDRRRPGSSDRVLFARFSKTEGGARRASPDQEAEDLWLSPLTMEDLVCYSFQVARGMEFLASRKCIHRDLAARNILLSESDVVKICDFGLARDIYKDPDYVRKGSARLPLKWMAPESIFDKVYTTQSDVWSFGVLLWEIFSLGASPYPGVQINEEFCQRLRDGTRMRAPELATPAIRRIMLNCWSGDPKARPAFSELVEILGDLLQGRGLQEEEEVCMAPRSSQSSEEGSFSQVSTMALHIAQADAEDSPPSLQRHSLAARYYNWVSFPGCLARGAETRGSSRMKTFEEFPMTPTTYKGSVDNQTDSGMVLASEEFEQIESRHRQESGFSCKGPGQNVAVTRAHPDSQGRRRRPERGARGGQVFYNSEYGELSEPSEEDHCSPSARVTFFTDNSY

[3] = molecular target: Glycogen synthase kinase-3 beta (Homo sapiens, UniProt P49841); assay: Selectivity interaction (Kinase panel (literature)) EUB0001199aCl GSK3B; conditions: at 1 µM
Chain of Glycogen synthase kinase-3 beta (P49841 whole entry, looked up): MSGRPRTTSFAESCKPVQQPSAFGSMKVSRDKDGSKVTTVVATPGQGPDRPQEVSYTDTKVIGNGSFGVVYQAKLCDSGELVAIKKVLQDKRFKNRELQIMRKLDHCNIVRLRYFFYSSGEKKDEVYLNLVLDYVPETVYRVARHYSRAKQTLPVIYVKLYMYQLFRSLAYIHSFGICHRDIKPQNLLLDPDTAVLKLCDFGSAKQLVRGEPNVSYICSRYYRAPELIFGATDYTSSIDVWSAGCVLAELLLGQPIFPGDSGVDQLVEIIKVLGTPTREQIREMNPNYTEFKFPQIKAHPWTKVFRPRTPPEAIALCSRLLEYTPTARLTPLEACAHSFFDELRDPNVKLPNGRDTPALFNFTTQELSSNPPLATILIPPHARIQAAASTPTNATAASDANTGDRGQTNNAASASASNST

[4] = molecular target: T2, Homeodomain-interacting protein kinase 4 (Homo sapiens) (UniProt Q8NE63); assay: Selectivity interaction (KinomeScan (DiscoverX)) EUB0000695a HIPK4; conditions: at 100 nM
T2 sequence (whole entry): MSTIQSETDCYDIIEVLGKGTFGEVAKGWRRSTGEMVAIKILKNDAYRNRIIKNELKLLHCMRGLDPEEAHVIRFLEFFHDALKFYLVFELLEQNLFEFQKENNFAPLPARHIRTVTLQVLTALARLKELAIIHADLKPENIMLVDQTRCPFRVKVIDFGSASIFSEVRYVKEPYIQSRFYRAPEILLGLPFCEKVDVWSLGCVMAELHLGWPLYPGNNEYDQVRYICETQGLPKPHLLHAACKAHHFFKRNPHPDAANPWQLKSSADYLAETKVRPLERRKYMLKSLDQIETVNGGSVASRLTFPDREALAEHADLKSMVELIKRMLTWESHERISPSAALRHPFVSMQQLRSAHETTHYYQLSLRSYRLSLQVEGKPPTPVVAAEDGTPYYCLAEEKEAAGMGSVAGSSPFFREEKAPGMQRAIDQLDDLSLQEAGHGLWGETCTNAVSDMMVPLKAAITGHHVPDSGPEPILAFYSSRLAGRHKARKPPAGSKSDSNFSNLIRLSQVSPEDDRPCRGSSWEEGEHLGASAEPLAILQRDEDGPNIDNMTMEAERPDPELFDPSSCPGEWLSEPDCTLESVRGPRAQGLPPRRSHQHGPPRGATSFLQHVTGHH

[5] = molecular target: Ephrin type-A receptor 5 (Homo sapiens) (UniProt P54756); assay: Selectivity interaction (KinomeScan (DiscoverX)) EUB0000229b EPHA5; conditions: at 10 µM
Chain of Ephrin type-A receptor 5 (Homo sapiens) (P54756 whole entry): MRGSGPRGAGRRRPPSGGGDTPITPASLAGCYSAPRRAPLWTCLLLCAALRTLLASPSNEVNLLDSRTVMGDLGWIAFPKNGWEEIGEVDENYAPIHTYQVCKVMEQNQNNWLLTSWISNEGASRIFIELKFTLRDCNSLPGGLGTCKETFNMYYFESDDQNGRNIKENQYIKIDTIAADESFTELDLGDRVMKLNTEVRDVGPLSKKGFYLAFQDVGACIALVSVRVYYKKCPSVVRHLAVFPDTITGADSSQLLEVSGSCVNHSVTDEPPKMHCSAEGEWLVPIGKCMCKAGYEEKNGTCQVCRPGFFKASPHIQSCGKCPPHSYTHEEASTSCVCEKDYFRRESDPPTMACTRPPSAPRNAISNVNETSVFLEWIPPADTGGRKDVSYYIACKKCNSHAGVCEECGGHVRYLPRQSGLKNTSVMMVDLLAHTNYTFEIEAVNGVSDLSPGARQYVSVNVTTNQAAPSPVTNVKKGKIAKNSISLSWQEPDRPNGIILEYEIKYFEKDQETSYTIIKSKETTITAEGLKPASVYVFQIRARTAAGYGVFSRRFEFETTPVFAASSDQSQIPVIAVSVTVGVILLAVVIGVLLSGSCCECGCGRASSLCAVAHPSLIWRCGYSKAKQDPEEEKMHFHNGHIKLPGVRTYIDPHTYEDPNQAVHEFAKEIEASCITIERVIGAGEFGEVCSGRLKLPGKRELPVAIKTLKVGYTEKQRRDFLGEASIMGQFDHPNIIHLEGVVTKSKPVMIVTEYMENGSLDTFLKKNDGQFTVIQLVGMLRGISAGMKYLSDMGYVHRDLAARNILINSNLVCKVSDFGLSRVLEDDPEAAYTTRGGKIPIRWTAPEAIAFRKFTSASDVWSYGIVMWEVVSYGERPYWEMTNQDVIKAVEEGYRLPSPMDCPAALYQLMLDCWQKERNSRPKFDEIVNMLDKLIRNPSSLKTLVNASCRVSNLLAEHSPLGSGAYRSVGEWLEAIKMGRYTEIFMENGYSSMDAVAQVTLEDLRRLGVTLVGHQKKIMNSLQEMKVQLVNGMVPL

[6] = molecular target: Calcium/calmodulin-dependent protein kinase type II subunit beta (Homo sapiens) (UniProt Q13554); assay: Selectivity interaction (KinomeScan (DiscoverX)) EUB0001079a CAMK2B; conditions: at 1 µM
Chain of Calcium/calmodulin-dependent protein kinase type II subunit beta (Homo sapiens) (Q13554 whole entry): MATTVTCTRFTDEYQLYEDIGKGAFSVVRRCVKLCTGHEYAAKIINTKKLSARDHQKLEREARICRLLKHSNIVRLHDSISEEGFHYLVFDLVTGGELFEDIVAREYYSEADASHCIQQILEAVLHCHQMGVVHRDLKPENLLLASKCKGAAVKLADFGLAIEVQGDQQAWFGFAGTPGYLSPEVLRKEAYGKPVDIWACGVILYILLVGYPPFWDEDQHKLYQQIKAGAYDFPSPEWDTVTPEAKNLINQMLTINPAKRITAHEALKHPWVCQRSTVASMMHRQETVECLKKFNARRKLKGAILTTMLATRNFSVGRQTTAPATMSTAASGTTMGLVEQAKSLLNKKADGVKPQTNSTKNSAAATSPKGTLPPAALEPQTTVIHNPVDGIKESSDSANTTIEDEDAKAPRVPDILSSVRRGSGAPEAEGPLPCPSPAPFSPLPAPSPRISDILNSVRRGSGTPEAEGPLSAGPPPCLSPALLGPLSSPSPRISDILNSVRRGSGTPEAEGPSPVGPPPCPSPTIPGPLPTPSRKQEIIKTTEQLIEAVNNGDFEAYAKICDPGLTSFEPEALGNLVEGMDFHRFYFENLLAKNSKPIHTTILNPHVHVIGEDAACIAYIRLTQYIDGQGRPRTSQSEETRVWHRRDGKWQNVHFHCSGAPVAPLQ

[7] = molecular target: T3, Ephrin type-B receptor 2 (Homo sapiens) (UniProt P29323); assay: Selectivity interaction (Upstate Kinase Profiler service (Millipore)) EUB0000056c EPHB2; conditions: at 1 µM
T3 sequence (whole entry): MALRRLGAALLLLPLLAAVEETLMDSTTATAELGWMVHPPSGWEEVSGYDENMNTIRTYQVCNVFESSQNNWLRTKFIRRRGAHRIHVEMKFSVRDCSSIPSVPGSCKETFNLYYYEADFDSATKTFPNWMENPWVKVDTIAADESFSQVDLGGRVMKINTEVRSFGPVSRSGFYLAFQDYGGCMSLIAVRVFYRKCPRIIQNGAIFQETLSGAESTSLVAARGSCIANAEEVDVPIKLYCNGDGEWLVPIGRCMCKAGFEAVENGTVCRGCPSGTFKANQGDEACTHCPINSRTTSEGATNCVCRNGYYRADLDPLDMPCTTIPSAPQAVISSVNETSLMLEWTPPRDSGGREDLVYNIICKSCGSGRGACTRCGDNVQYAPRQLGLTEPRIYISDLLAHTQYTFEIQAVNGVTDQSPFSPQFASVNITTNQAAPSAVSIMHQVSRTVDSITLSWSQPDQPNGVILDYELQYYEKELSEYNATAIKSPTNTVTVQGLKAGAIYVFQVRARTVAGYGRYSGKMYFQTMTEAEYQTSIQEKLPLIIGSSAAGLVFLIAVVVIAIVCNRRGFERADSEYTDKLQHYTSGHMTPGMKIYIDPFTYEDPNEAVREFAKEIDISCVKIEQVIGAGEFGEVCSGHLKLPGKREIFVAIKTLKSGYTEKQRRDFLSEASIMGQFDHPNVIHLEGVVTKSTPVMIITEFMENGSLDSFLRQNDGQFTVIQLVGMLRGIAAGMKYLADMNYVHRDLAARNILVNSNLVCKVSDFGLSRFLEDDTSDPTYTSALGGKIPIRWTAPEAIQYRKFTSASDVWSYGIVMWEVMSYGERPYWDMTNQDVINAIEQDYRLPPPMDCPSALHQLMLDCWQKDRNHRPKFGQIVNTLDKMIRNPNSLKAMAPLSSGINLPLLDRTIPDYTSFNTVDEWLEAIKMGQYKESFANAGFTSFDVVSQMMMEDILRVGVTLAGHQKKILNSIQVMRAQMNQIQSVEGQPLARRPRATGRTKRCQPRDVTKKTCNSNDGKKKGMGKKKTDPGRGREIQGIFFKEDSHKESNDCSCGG

[8] = molecular target: Cyclin-dependent kinase 5/CDK5 activator 1 (Homo sapiens) (UniProt Q00535+Q15078); assay: Selectivity interaction (Upstate Kinase Profiler service (Millipore)) EUB0000056c CDK5; assay type: protein-complex assay; conditions: at 1 µM
Chain of Cyclin-dependent kinase 5/CDK5 activator 1 (Homo sapiens) (Q00535 whole entry): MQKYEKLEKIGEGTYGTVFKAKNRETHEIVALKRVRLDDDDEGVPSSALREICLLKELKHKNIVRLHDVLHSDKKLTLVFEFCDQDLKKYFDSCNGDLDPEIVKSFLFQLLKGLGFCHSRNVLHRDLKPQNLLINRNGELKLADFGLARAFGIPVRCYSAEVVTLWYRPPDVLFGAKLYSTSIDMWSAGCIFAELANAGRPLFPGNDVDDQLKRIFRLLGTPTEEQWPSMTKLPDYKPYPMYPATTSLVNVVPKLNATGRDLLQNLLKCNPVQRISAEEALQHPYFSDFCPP
Chain of Cyclin-dependent kinase 5/CDK5 activator 1 (Homo sapiens) (Q15078 99-307 partner limits assumed): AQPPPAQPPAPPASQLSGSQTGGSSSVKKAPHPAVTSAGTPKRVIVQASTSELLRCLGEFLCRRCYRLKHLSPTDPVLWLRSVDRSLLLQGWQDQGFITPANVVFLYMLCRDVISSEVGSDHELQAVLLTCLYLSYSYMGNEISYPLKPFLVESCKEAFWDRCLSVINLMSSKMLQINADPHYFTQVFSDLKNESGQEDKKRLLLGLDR

Question: `Cc1cc([C@@H](C)Nc2ccccc2C(=O)O)c2nc(N3CCOCC3)cc(=O)n2c1` [AZD-6482] was tested. Which % of control [1] did it give?
Answer: 100%

Question: With `COc1cc(Nc2nc(C)cc(-c3cnn4nc(OC)ccc34)n2)cc(C(F)(F)F)c1` as the compound, how does the % of control [2] read?
Answer: 89%

Question: For `CN1Cc2nccc(-c3cn(C)nc3-c3ccc(F)cc3)c2C1=O`, which % of inhibition [3] is on record?
Answer: 1%

Question: How did the % of control [4] turn out when `Cc1cc(F)c(C(=O)Nc2cccc(-c3nncn3C(C)C)n2)cc1-n1cnc(C2CC2)c1` was run?
Answer: 100%

Question: How did the % binding [5] turn out when `COc1cc(N(C)c2ccnc3ccc(C(F)(F)F)cc23)cc(OC)c1OC` was run?
Answer: 97%

Question: Which % of control [6] does the source give for `Nc1cnc(N2CCc3cc(S(=O)(=O)Nc4c(F)cc(Cl)cc4F)cc(N4CCCC4=O)c32)nc1` [TP-020n] here?
Answer: 100%

Question: What does the source list for `Cc1ccc(-c2ccc3c(ccc4sc5c(c43)NC[C@@H](C)NC5=O)n2)cn1`?
Answer: % of inhibition [7]: -14%; % of inhibition [8]: 62%
